Reference: patent US6420131B1, “Use of fluorescein aryl ethers in high throughput cytochrome P450 inhibition assays” (Gentest Corporation, priority 1999, dated 2002)

Assays:
[1] = target: T1, Rat CYP2C12 (Rattus norvegicus, UniProt P11510); assay: Turnover of fluorometric substrates by rat CYP2C12; conditions: substrate uM: Ia 2, AMMC 20, CEC 40, MFC 50, BFC 50, BQ 40, BzRes 50; 30 min; enzyme 50 nM
T1 sequence (P11510 1-490): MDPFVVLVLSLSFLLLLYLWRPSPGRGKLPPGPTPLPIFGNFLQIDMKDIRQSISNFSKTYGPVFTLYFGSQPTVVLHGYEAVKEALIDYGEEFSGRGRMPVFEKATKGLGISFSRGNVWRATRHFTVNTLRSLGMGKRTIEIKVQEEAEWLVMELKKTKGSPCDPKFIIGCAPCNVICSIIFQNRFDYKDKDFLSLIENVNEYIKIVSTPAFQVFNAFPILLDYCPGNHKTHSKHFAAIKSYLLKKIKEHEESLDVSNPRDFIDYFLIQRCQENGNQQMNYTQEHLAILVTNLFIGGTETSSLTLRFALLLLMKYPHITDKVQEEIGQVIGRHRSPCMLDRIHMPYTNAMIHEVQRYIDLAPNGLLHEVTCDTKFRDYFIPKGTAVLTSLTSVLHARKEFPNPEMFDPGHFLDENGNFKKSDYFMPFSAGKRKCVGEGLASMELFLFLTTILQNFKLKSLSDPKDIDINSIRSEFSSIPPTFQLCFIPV

[2] = target: human CYP3A4 (Homo sapiens, UniProt P08684); assay: Enzyme kinetics of substrate turnover by cDNA-expressed CYP3A4; type: biochemical; parameters: purchased GENTEST Corporation P202; host or cells: baculovirus/insect cells (microsomes, SUPERSOMES); conditions: for Vmax: CYP3A4
Experimental: The evaluation of compounds of Formula I were performed by measuring the kinetics of turnover using cDNA-expressed cytochromes P450 CYP3A4 and CYP2C8. Vmax and Km values are important for the optimization of the assay conditions and for setting the parameters for inhibition experiments.
Example Compound Ia. […] Final incubation volume was 0.2 ml. […] The activity was quantitated by comparing to a standard curve of fluorescein. Apparent Km and Vmax values were calculated by non-linear regression using SigmaPlot software.

[3] = target: Rat CYP2E1 (Rattus norvegicus, UniProt P05182); assay: Turnover of fluorometric substrates by rat CYP2E1; conditions: substrate uM: Ia 2, AMMC 20, CEC 40, MFC 50, BFC 50, BQ 40, BzRes 50; 30 min; enzyme 87 nM, lymphoblastoid microsomes
[4] = target: T2, panel of Human P450 enzymes (Homo sapiens, UniProt P10632); assay: Substrate specificity, dealkylation of Compounds Ia and Ib by a panel of human P450 enzymes; type: biochemical; conditions: CYP2C8
T2 construct: purchased GENTEST Corporation; host or cells: baculovirus/insect cells (microsomes, SUPERSOMES)
T2 sequence (P10632 1-490): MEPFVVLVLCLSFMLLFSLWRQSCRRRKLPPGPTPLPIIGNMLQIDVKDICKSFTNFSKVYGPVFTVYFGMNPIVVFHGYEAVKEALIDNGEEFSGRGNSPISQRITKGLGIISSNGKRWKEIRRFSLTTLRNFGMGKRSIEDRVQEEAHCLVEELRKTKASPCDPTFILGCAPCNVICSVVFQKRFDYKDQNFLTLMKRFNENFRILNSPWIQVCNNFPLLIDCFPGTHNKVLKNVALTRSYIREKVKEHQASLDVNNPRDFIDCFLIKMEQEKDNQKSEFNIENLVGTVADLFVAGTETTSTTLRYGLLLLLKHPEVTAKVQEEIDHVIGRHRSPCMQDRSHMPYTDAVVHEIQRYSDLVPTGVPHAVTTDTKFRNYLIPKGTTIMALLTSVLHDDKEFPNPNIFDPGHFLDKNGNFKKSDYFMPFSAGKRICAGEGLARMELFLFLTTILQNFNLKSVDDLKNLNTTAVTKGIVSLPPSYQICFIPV
Experimental: (§1) The specificity of several cytochrome P450 enzymes for the dealkylation of Compound Ia (FIG. 1) and Compound Ib (FIG. 2) was examined.
(§2) Example Compounds Ia and Ib. […] Final incubation volume was 0.2 ml.

[5] = system: panel of Human P450 enzymes; assay: as above; type: biochemical; conditions: CYP2C9*1, CYP2C19, members of the CYP3A family
Experimental: as §1, §2

[6] = target: T3, panel of Human P450 enzymes (Homo sapiens, UniProt P04798); assay: as above; type: biochemical; conditions: CYP1A1
T3 construct: purchased GENTEST Corporation; host or cells: baculovirus/insect cells (microsomes, SUPERSOMES)
T3 sequence (P04798 1-512): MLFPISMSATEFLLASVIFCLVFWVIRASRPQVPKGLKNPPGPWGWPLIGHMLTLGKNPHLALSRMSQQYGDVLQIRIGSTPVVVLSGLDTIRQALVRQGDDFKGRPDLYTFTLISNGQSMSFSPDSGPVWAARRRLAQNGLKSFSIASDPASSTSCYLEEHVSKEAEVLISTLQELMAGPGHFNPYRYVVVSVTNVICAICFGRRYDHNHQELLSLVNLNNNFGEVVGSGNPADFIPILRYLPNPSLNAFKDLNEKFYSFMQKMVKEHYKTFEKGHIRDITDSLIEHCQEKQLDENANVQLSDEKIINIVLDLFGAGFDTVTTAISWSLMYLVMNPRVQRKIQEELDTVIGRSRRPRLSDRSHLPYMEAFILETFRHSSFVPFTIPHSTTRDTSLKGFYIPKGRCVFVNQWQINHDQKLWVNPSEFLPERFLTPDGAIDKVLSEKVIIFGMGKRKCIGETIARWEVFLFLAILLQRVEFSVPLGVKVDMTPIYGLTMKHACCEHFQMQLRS
Experimental: as §1, §2

Chain of human CYP3A4 (P08684 whole entry): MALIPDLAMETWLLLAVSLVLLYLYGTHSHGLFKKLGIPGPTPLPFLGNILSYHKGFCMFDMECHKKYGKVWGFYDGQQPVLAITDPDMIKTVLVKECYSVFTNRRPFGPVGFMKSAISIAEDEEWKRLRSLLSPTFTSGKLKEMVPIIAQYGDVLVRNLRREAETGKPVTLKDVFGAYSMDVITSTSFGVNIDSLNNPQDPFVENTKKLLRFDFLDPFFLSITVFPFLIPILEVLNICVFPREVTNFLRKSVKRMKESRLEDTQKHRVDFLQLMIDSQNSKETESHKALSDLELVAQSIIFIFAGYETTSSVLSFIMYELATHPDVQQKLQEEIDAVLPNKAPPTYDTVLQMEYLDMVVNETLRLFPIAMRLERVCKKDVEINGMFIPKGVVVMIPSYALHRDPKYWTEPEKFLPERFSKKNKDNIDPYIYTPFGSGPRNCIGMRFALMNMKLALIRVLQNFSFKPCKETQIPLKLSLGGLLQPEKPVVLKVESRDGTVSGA
Chain of Rat CYP2E1 (P05182 whole entry): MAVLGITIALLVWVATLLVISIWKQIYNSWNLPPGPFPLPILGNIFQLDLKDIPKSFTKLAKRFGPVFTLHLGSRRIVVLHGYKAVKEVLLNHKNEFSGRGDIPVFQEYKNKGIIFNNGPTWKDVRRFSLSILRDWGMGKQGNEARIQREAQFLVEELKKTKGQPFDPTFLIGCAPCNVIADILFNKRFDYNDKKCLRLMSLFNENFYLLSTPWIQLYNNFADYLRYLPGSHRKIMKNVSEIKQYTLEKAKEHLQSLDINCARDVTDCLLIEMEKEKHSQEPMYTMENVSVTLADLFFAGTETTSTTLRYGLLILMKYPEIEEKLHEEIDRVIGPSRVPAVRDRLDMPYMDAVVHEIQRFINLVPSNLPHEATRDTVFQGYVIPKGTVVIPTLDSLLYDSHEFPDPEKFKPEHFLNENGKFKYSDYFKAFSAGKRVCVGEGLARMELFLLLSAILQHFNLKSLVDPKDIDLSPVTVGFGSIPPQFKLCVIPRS

| Turnover Numbers, CYP2C12 [1] | SMILES | Vmax [2] | Turnover Numbers, CYP2E1 [3] | further results |
| --- | --- | --- | --- | --- |
| 1.5 pmol product/min/pmol enzyme | c1ccc(COc2ccc3cccnc3c2)cc1 [BQ, 7-Benzyloxyquinoline] |  |  |  |
|  | O=c1ccc2nc3ccc(OCc4ccccc4)cc3oc-2c1 [BzRes, 7-benzyloxyresorufin] | 2.3 ± 0.2 |  | Km ([2]; CYP3A4, apparent Km): 30 ± 7 µM |
|  | CCOc1ccc2cc(C#N)c(=O)oc2c1 [CEC, 7-Ethoxy-3-cyanocoumarin] |  | 0.10 pmol product/min/pmol enzyme |  |
|  | O=C(OCc1ccccc1)c1ccccc1-c1c2ccc(=O)cc-2oc2cc(OCc3ccccc3)ccc12 [Compound Ia, O-Benzylfluorescein Benzyl Ester] | 22 ± 0.98 |  | dealkylation activity [4]: substantial enzyme activity; dealkylation activity [5]: catalyzed the dealkylation; dealkylation activity [6]: highest activity |
| 0.24 pmol product/min/pmol enzyme | COc1ccc2c(C(F)(F)F)cc(=O)oc2c1 [MFC, 7-Methoxy-4-trifluoromethylcoumarin] |  | 2.11 pmol product/min/pmol enzyme |  |
